Results reported in PMC2837273 (Drug metabolism and disposition: the biological fate of …, 2008).
“Also recorded” adds a separate entry of the source. Read-outs that look alike come from different tables or passages of the source.

Assays:
Abcg2 [1] = assay: GF120918 "chemical knockout" of nitrofurantoin transfer into rat milk; type: in vivo, Sprague Dawley rat; conditions: GF120918 10 mg/kg treated group vs control; lactating rats
rat Abcg2 [2] = biological target: T1, rat Abcg2 (Rattus norvegicus, UniProt Q80W57); type: cell-based
T1 sequence (Q80W57 1-657): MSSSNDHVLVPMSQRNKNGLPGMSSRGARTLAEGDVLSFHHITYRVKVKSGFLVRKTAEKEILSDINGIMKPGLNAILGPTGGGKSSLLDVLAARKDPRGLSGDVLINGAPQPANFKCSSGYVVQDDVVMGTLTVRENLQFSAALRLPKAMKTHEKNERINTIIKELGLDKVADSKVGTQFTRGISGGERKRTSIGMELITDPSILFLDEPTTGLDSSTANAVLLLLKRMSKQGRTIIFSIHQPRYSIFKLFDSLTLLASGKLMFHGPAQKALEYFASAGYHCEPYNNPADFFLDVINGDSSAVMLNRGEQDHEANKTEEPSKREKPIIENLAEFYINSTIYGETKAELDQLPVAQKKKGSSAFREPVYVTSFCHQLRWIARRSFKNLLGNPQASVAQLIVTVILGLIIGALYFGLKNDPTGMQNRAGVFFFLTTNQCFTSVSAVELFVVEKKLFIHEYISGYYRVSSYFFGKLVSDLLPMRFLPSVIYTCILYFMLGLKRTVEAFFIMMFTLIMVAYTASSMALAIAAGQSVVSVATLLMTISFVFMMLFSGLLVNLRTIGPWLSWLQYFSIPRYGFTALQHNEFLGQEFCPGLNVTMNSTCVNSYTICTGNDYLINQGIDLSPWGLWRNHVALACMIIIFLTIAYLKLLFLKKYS

rat Abcg2 [3] = biological target: T1, rat Abcg2; assay: Hoechst 33342 accumulation in MDCKII-rAbcg2 cells; type: cell-based; conditions: 1 μM GF120918, 10μM Hoechst 33342
human ABCG2 = conditions: read-out: IC50 on efflux or accumulation; cell lines transfected with human ABCG2; ref Ahmed-Belkacem et al., 2005; Pan et al., 2007; cited from earlier work
Abcg2 [4] = conditions: wild-type and P-gp deficient mice; ref Cisternino et al., 2004; cited from earlier work
murine Bcrp1 = conditions: polarized cell lines; ref Merino et al., 2005; cited from earlier work
human BCRP = conditions: polarized cell lines; ref Merino et al., 2005; cited from earlier work
Bcrp1 = conditions: ref Merino et al., 2005, cited from earlier work
[5] = MDCKII-rat Abcg2 vs MDCKII-empty cells, 10μM nitrofurantoin

COc1cc2c(cc1OC)CN(CCc1ccc(NC(=O)c3cccc4c(=O)c5cccc(OC)c5[nH]c34)cc1)CC2 [GF120918, N-(4-[2-(1,2,3,4-tetrahydro-6,7-dimethoxy-2-isoquinolinyl)ethyl]-phenyl)-9,10-dihydro-5-methoxy-9-oxo-4-acridine carboxamide]
reduction in the M/S of nitrofurantoin (Abcg2 [1]): 93% | effect on nitrofurantoin transport/efflux by rat Abcg2 (rat Abcg2 [2]; 1 μM GF120918, MDCKII-rAbcg2 cells): largely reversed; also recorded: effectively inhibit | effect on Hoechst 33342 efflux phenotype (reduced accumulation) (rat Abcg2 [3]): reversed; also recorded: effectively inhibit | IC50 (human ABCG2): ~300 nM

O=C1c2c(O)ccc(O)c2C(=O)c2c(NCCNCCO)ccc(NCCNCCO)c21 [mitoxantrone]
accumulation in the presence of GF120918 (Abcg2 [4]): significantly increased

O=C1CN(/N=C/c2ccc([N+](=O)[O-])o2)C(=O)N1 [nitrofurantoin, Nitrofurantoin]
decrease in basolateral transport (rat Abcg2 [2]; [5]): 55% | increase in apical directed transport (rat Abcg2 [2]; [5]): 7.5 fold | transport by murine Bcrp1 (murine Bcrp1): efficiently transported | transport by human BCRP (human BCRP): efficiently transported | area under the concentration time curve, Bcrp1 knockout vs wild-type mice (Bcrp1; intravenous administration): 2 fold | area under the concentration time curve, Bcrp1 knockout vs wild-type mice (Bcrp1; oral administration): 4 fold
